Columns and labels:
[1] = test system: DSS induced acute colitis
Source text: In one embodiment, IBD was induced in mice by add DSS into drink water for 7 days. […] (Cooper, S. et al., Clinic pathologic study of dextran sulfate sodium experimental murine colitis, Laboratory Investigation, vol. 69, no. 2, p. 238-249, 1993)
The mice were scarified at day 10th for anatomy and histology evaluations. […] Each of the above histological features was scored individually and added together which is then collectively expressed as “histological score”, for quantitative evaluation (Cooper, S. et al., above).
Male C57BL mice (8-10 weeks, 18-20 g) were grouped into control (drinking water only), DSS and DSS plus treatment groups (n=5). Acute colitis was induced by feeding mice with 2% (w/v) dextran sulfate sodium (DSS) (molecular mass 36-50 kDa) added to the drinking water given ad libitum for 7 days. At the end of seventh day, DSS was removed and animals received only drinking water for 2 days. The animals were euthanized for anatomical and histological examination at the tenth day after DSS ingestion.
R-salbutamol (R-S) (1 mg/kg, S-salbutamol (S-S) (1 mg/kg), R-terbutaline (R-T) (1 mg/kg), S-terbutaline (S-T) (1 mg/kg), R-bambuterol (10 mg/kg), S-bambuterol (S-B) (10 mg/kg), R-clenbuterol (R-C) (1 mg/kg), RS-clenbuterol (RS-C) (2 mg/kg) were administered i.g. daily, starting from the 2nd day of DSS induction for consecutive 8 days. Dexamethasone (Dex), 1 mg/kg) was used as a reference drug.
Evaluation of disease symptoms and histological changes Disease activity index (DAI): Animals were monitored daily for weight, water/food consumption, morbidity, stool consistency and fecal blood. […] The colon length was recorded as an indicator of inflammation. The entire colon was cut open longitudinally and gently flushed with sterile phosphate-buffered saline (PBS) to remove any traces of feces for pathology preparation. Colon segments were fixed in 10% neutral buffered formalin. Tissues were embedded in paraffin, sectioned, mounted on slides. H&E-stained paraffin section images were acquired. Pathological evaluation was conducted in a blinded manner.
Histological Score: the scores were given as follows: epithelium, 0=normal morphology, 1=loss of goblet cells, 2=loss of goblet cells in large areas, 3=loss of crypts, and 4=loss of crypts in large areas; and inflammation cells infiltration, 0=no infiltrate, 1=infiltrate around the crypt basis, 2=infiltrate reaching the muscularis mucosae, 3=extensive infiltration reaching the muscularis mucosae and thickening of the mucosa with abundant edema, and 4=infiltration of the submucosa. Data were presented as mean±the standard deviation (SD).

[2] = test system: DSS induced sub-acute colitis; type: in vivo; conditions: treatments started at day 7th till day 22nd
[3] = test system: DSS induced sub-acute colitis; experiment: Prolonged (two weeks) treatment in DSS induced sub-acute colitis; type: in vivo, mice; conditions: evaluation at 23rd day, salbutamol 1 mg/kg, bambuterol 10 mg/kg
Source text: Same as example 2, except. 1), Two Weeks Treatment within a Three Weeks of Study
DSS was removed from drinking water at the end of 1st week. The treatments were started at 1st day for consecutive 14 days (2 weeks). Only drinking water given for the 3rd week. The evaluation and examination were made at 23rd day as did in example 1.

[4] = test system: hemorrhoid inflammation symptoms; experiment: Hemorrhoid inflammation symptoms, oral or topical; type: in vivo; conditions: given either orally or topically
Source text: These perianal pathological changes somewhat similar to hemorrhoid inflammation symptoms. […] This new used of beta2 agonists in treatment of hemorrhoid inflammation symptoms has never been disclosed in prior art.

psoriasis and eczema = experiment: Oral administration in rats, psoriasis and eczema; type: in vivo
[5] = test system: IMQ-induced Psoriasis-Like Skin lesions; experiment: IMQ-induced psoriasis-like skin lesions; type: in vivo, mice
Description: Mice were divided into control, psoriasis and psoriasis plus treatment groups, (n=8 in each group). Psoriasis were induced by topical application of imiquimod cream (62.5 mg) on shaved dorsal skin for seven consecutive days. Vaseline was used in control group. There were four treatment groups: three doses of R-salbutamol (R-Sal) (0.5 mg, 1 mg, 2 mg/kg) and Dexamethasone (1 mg/kg) as positive control. All the treatments and same volume of saline (in control group) were administered orally. In some experiment, R-bambuterol (long-last beta2 agonist) was used as an additional treatment group (n=3). Psoriasis Area Severity Index were used for evaluation. Each of the scores for erythema, scaling and skin thickness were measured separately and then group together as a calculative score. (FIG. 2)

[6] = acute DSS colitis, compared with untreated DSS mice

## CC(C)(C)NC[C@H](O)c1ccc(O)c(CO)c1 [R-S, R-salbutamol]
[1]; Example 1, compared with untreated DSS mice
  colon histology (H&E), in words: greatly improved
[1]; acute DSS colitis
  body weight, in words: increased
[1]; [6]
  DAI, in words: significantly improved
  FOB, in words: reduced
  histological score, in words: significantly reduced
  length of colon-rector / shortening of large bowel, in words: shortening of large bowel was reduced
[1]; epithelium 0-4 plus infiltration 0-4, tenth day, 1 mg/kg (R-B, S-B 10 mg/kg; RS-C 2 mg/kg), mean ± SD
  Hist score (histological score): 4 ± 0.5
[1]; grade 0, 2, 4, i.g. daily 8 days, 1 mg/kg (R-B, S-B 10 mg/kg; RS-C 2 mg/kg), mean ± SD
  FOB (fecal occult blood): 0.5 ± 0.5
[1]; i.g. daily 8 days, 1 mg/kg (R-B, S-B 10 mg/kg; RS-C 2 mg/kg), mean ± SD
  Weight: 93 ± 2.8
[1]; score 0 to 12, i.g. daily 8 days from 2nd day of DSS, 1 mg/kg (R-B, S-B 10 mg/kg; RS-C 2 mg/kg), n=5
  DAI (disease active index): 4
[1]; tenth day, i.g. daily 8 days, 1 mg/kg (R-B, S-B 10 mg/kg; RS-C 2 mg/kg), mean ± SD
  Col Length (colon length): 7.7 ± 0.6
[2]
  therapeutic effects in DSS induced IBD mice: significant therapeutic effects
[3]
  DAI, in words: return toward normal
  histological score, in words: return toward normal
[4]
  hemorrhoid inflammation symptoms: significantly alleviated
Psoriasis and eczema
  psoriasis and eczema: significantly ameliorate
[5]; R-salbutamol 2.0 mg/kg oral
  Psoriasis Area Severity score, high dose: best effects for all the scores
[5]; R-salbutamol 0.5, 1, 2 mg/kg oral
  dose dependence of Psoriasis Area Severity score: dose-dependent response
[5]; dorsal skin, IMQ-induced psoriasis mice
  histology of psoriasis skin lesions (HE): mostly recovered
[5]; oral, R-salbutamol 0.5, 1, 2 mg/kg, Dexamethasone 1 mg/kg, compared with psoriasis group
  Psoriasis Area Severity score: significantly reduced
